The nature of series [1]: Assay 12 Turbidimetric solubility measurements. It counts as physicochemical. As to conditions: kinetic from dmso stock, nephelometry. As to the method: Turbidimetric Solubility Measurements
The solubility estimate was measured at both pH 2.0 and pH 6.5. This is within the pH range that can be anticipated along the proximal gastrointestinal tract in humans.
The compounds were dissolved in DMSO to appropriate concentrations and then spiked into either 0.01M HCl (approx. pH=2.0) or pH 6.5 isotonic phosphate buffer, the final DMSO concentration being 1%. Samples were then analysed via Nephelometry to determine a solubility range. [as per D. Bevan and R. S. Lloyd, Anal. Chem. 2000, 72, 1781-1787].

Series [2] relates to Neuronal cortical cells treated with Aβ1-42. As to the kind of experiment: Assay 3(c) Aβ neurotoxicity and Aβ neuroprotection (MTS). The class given is cell-based, mouse. As to conditions: 20 uM Aβ1-42, 4 days. How it is done: Primary Cortical Neuronal Cultures
Cortical cultures were prepared as previously described (White et al., 1998). Embryonic day 14 BL6Jx129sv mouse cortices were removed, dissected free of meninges and dissociated in 0.025% (wt/vol) trypsin. Dissociated cells were plated in 48 well culture plates at a density of 2×10^6 cells/mL in MEM with 25% (vol/vol) FCS and 5% (vol/vol) HS and incubated at 37° C., 2 hrs. Media was then replaced with Neurobasal media (Invitrogen Life Technologies) and B27 supplements (Invitrogen Life Technologies). Cultures were maintained at 37° C. in 5% CO2. Prior to experimentation, the culture medium was replaced with Neurobasal media and B27 minus antioxidants (Invitrogen Life Technologies).
(c) Assay for Aβ Neurotoxicity and Aβ Neuroprotection
Neuronal cortical cells were cultured for five days as per Assay 2. On day six the neurobasal (NB) media (Invitrogen Life Technologies) and B27 supplement (Invitrogen Life Technologies) were replaced with NB media and B27 supplement (no antioxidants). On day six, test compounds were individually added to the neuronal cell cultures:
The test compounds were dissolved in 100% DMSO to a concentration of 2.5 mM (10 mM if excess compound was weighed out per vial—then diluted to 2.5 mM). 2.5 mM stock solution was serially diluted 1 in 10 to give working solutions of 250 uM, 25 uM, 2.5 uM.
Aβ was initially dissolved in 20 mM NaOH to a concentration of 1 mM and sonicated for 5 minutes. The peptide was then diluted in H2O and 10×PBS to a final concentration of 200 uM Aβ in 1×PBS. The peptide was again sonicated for 5 minutes and then spun at 14000 rpm for 5 min and transferred to a fresh tube.
The test compounds were dissolved in 100% DMSO to a concentration of 2.5 mM (10 mM if excess compound was weighed out per vial—then diluted to 2.5 mM). 2.5 mM stock solution was serially diluted 1 in 10 [in NB media and B27 (no antioxidants)] to give working solutions of 250 uM, 25 uM, 2.5 uM. Test compounds were not added directly to cells, instead they were added to a 48 well ‘Drug Plate’ as comprised below:
Preparation of “Drug Plate”:
• Well 1: 515 ul NB+B27(no antioxidant)*+24 ul 25 uM test compound+60 ul Aβ diluent** • Well 2: 515 ul NB+B27(no antioxidant)+24 ul 250 uM test compound+60 ul Aβ diluent • Well 3: 515 ul NB+B27(no antioxidant)+24 ul test compound diluent***+60 ul Aβ1-42 • Well 4: 515 ul NB+B27(no antioxidant)+24 ul 2.5 uM test compound+60 ul Aβ1-42 • Well 5: 515 ul NB+B27(no antioxidant)+24 ul 25 uM test compound+60 ul Aβ1-42 • Well 6: 515 ul NB+B27(no antioxidant)+24 ul 250 uM test compound+60 ul […] • Well 7: 515 ul NB+B27(no antioxidant)+24 ul test compound diluent+60 ul Aβ1-42 diluent • Well 8: 600 ul NB+B27(no antioxidant) • N.B. 60 ul Aβ1-42 equals 20 ul Aβ1-42 per well equals 20 uM Aβ1-42
The Drug Plate was incubated at 37° C. for 15 mins. 200 ul of each well was added in triplicate to the corresponding cell plate. The cell plate was incubated at 37 C, for 4 days. • * NB media+B27 (no antioxidants), • ** Aβ diluent 2 mM NaOH, 1×PBS • *** PBT diluent 10% DMSO in NB+B27(no antioxidant) Completion of the Assay:
On the 4th day after treating the cells the assay is completed by adding MTS to the cells.

The next series addresses T1, Aβ 1-42 (Homo sapiens, UniProt P05067).
T1 construct: The reaction solutions contained Aβ 1-42
As to the kind of experiment: Assay 1 Fluorometric H2O2 assay: inhibition of hydrogen peroxide generation by Aβ in the presence of copper. The class given is biochemical. As to conditions: Aβ 1-42 with Cu-Gly, DCF fluorescence. As to the method:
Assay 1. Fluorometric H2O2 Assay
A fluorometric assay was used to test the ability of a test compound to inhibit hydrogen peroxide generation by Aβ in the presence of copper based on dichlorofluoroscein diacetate (DCF; Molecular Probes, Eugene Oreg.). The DCF solution (5 mM) in 100% dimethyl sulphoxide (previously purged with argon for 1 hr at 20° C.) was deacetylated in the presence of 0.025M NaOH for 30 min and neutralised at pH 7.4 to a final concentration of 1 mM. Horseradish peroxidase ([…]) stock solution was prepared to 1 μM at pH 7.4. The reactions were carried out in PBS, pH 7.4 in a 96 well plate (total volume=250 μl/well). The reaction solutions contained Aβ 1-42 at concentrations in the range of 50 nM to 1 μM, copper-glycine chelate (Cu-Gly), was prepared by adding CuCl2 to glycine in the ratio of 1:6 and added to the Aβ in the proportion 2Cu-Gly: 1Aβ), reducing agents including dopamine (5 μM) or ascorbic acid, deacetylated DCF 100 μM, and HRP, 0.1 μM. 1-10 μM EDTA or another chelator may also be present as a control for free copper, but was not required for the assay to function. The reaction mixture was incubated at 37 C for 60 min. Catalase (4000 units/ml) and H2O2 (1-2.5 μM) standards in PBS pH 7.4 may be included as positive controls. Fluorescence was recorded using a plate reader with excitation and emission filters at […] respectively. H2O2 concentration may be established by comparing fluorescence with the H2O2 standards. Inhibition of Aβ H2O2 production was assayed by including a given concentration of test compound(s) in the test wells.

The mark [3] stands for this setting: aqueous buffer, pH 6.5 isotonic phosphate buffer, 1% DMSO, read-out: Assay 12 Solubility at pH 6.5.
Setting [4] is: simulated gastric fluid, 0.01 M HCl, pH 2.0, 1% DMSO, read-out: Assay 12 Solubility in 0.01 M HCl, pH 2.0.

Converted amounts (≈) assume the structure as drawn. Read-outs that look alike come from different tables or passages of the source. Some results are limits rather than exact numbers.

T1 sequence (P05067 672-713 limits assumed): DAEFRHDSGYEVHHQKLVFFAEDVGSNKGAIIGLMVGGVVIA

In general, solubility refers to the dissolved amount per volume that the medium holds. Broadly, the IC50 is the concentration that inhibits the measured activity by half. As for `Oc1c(N2CCOCC2)ncc2cccnc12` [PBT-1053, 7-Morpholin-4-yl-[1,6]naphthyridin-8-ol], the values for the solubility in series [1] (setting [3]) and in series [1] (setting [4]) were above 200 µg/mL and 50 to 100 µg/mL (≈ 216 to 432 µM), respectively. The “Assay 3(c) Neuroprotection (% inhibition of Abeta toxicity)” value in series [2] stood at 11%. For the same molecule, the 50% inhibitory concentration (IC50) at Aβ 1-42 turned out to be 630 nM.

Consider `O=c1c2c(Cl)cc(Cl)c(O)c2ncn1C1CC1` [PBT-1061, 5,7-Dichloro-3-cyclopropyl-8-hydroxy-3H-quinazolin-4-one], for which the solubility in series [1] (setting [3]) is 12.5 to 25 µg/mL (≈ 46.1 to 92.2 µM); in series [1] (setting [4]) it was 3.1 to 6.2 µg/mL (≈ 11.4 to 22.9 µM). For the same molecule, in series [2], the “Assay 3(c) Neuroprotection (% inhibition of Abeta toxicity)” value is given as 16%. Also, the IC50 on Aβ 1-42 was 450 nM.

For the molecule `O=c1c(-c2ccc(Cl)cc2)cnc2c(O)c(I)ccn12` [PBT-1063, 3-(4-Chlorophenyl)-9-hydroxy-8-iodopyrido[1,2-a]pyrimidin-4-one], the solubility in series [1] (setting [3]) is below 5 µg/mL; in series [1] (setting [4]) it was below 10 µg/mL. Also, the “Assay 3(c) Neuroprotection (% inhibition of Abeta toxicity)” value in series [2] worked out at 3%. In addition, the IC50 on Aβ 1-42 was 620 nM.

Source of the values: patent US7692011B2, “8-hydroxy and 8-mercapto quinazolinones” (Prana Biotechnology Limited, priority 2002, dated 2010).
